In assay [1] the target is Serine/threonine-protein kinase PLK2 (Homo sapiens) (UniProt Q9NYY3). Description: Inhibition of wild-type human partial length PLK2 (H58 to F354 residues) expressed in mammalian expression system at 10 uM by Kinomescan method relative to control.
Assay [2] concerns the target MAP kinase-activated protein kinase 5 (Homo sapiens) (UniProt Q8IW41). Description: Inhibition of wild-type human partial length MAPKAPK5 (M1 to D322 residues) expressed in mammalian expression system at 10 uM by Kinomescan method relative to control.
The target of assay [3] is Cyclin-dependent kinase 11B (Homo sapiens) (UniProt P21127). Description: Inhibition of wild-type human partial length CDC2L1 (P353 to G692 residues) expressed in bacterial expression system at 10 uM by Kinomescan method relative to control.
Assay [4] addresses Aurora kinase A (Homo sapiens) (UniProt O14965). Description: Inhibition of wild-type human partial length AURKA (E122 to K401 residues) expressed in mammalian expression system at 10 uM by Kinomescan method relative to control.
In assay [5] the test system is Epidermal growth factor receptor (Homo sapiens), P00533 [G719C]. Kind of assay: Inhibition of human partial length EGFR G719C mutant (R669 to V1011 residues) expressed in bacterial expression system at 10 uM by Kinomescan method relative to control.
In assay [6] the target is Mitogen-activated protein kinase 10 (Homo sapiens) (UniProt P53779). Kind of assay: Inhibition of wild-type human partial length JNK3 (V28 to Q422 residues) expressed in mammalian expression system at 10 uM by Kinomescan method relative to control.
Assay [7] relates to Proto-oncogene tyrosine-protein kinase receptor Ret (Homo sapiens), P07949 [V804L]. Description: Inhibition of human partial length RET V804L mutant (E713 to D1014 residues) expressed in bacterial expression system at 10 uM by Kinomescan method relative to control.
Assay [8] deals with Tyrosine-protein kinase ABL1 (Homo sapiens), P00519 [Q252H]. Description: Inhibition of human non-phosphorylated ABL1 Q252H mutant (S229 to K512 residues) expressed in mammalian expression system at 10 uM by Kinomescan method relative to control.
Assay [9] has as its target Ribosomal protein S6 kinase alpha-6 (Homo sapiens) (UniProt Q9UK32). Kind of assay: Inhibition of wild-type human partial length C-terminal RSK4 kinase domain 2 (I401 to Y711 residues) expressed in bacterial expression system at 10 uM by Kinomescan method relative to control.
Assay [10] has as its target Tyrosine-protein kinase ITK/TSK (Homo sapiens) (UniProt Q08881). Kind of assay: Inhibition of wild-type human partial length ITK (R335 to L620 residues) expressed in bacterial expression system at 10 uM by Kinomescan method relative to control.
Assay [11] concerns the target Serine/threonine-protein kinase D2 (Homo sapiens) (UniProt Q9BZL6). Kind of assay: Inhibition of wild-type human partial length PRKD2 (A519 to E838 residues) expressed in bacterial expression system at 10 uM by Kinomescan method relative to control.
For assay [12], the target named is Serine/threonine-protein kinase MRCK alpha (Homo sapiens) (UniProt Q5VT25). Description: Inhibition of wild-type human partial length MRCKA (L57 to V418 residues) expressed in bacterial expression system at 10 uM by Kinomescan method relative to control.
Assay [13] concerns the target Serine/threonine-protein kinase STK11 (Homo sapiens) (UniProt Q15831). Kind of assay: Inhibition of wild-type human full length LKB1 (M1 to Q433 residues) expressed in bacterial expression system at 10 uM by Kinomescan method relative to control.
For assay [14], the target named is Mitogen-activated protein kinase 1 (Homo sapiens) (UniProt P28482). Description: Inhibition of wild-type human full length ERK2 (M1 to S360 residues) expressed in bacterial expression system at 10 uM by Kinomescan method relative to control.
Mitogen-activated protein kinase 1 (Homo sapiens), sequence (P28482 whole entry, the tested form may be a part): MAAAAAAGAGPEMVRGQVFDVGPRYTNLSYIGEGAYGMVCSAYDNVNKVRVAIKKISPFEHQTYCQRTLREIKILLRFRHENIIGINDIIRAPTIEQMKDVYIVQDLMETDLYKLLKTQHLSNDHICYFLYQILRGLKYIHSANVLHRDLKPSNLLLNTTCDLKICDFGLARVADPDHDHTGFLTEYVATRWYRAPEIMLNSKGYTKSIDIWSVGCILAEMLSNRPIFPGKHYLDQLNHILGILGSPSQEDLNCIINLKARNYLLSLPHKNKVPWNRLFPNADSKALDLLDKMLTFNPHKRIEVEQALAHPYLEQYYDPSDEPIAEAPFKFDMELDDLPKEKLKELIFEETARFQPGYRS
The target in assay [15] is Tyrosine-protein kinase Fes/Fps (Homo sapiens) (UniProt P07332). Description: Inhibition of wild-type human partial length FES (I527 to R822 residues) expressed in bacterial expression system at 1 uM by Kinomescan method relative to control.
Assay [16] deals with cGMP-dependent protein kinase 1 (Homo sapiens) (UniProt Q13976). Description: Inhibition of wild-type human partial length PRKG1 (L339 to F686 residues) expressed in bacterial expression system at 1 uM by Kinomescan method relative to control.
Assay [17] deals with Dual specificity tyrosine-phosphorylation-regulated kinase 1A (Homo sapiens) (UniProt Q13627). Description: Inhibition of wild-type human partial length DYRK1A (H129 to S509 residues) expressed in mammalian expression system at 1 uM by Kinomescan method relative to control.
The subject of assay [18] is Receptor-type tyrosine-protein kinase FLT3 (Homo sapiens), P36888 [K663Q]. Description: Inhibition of human partial length FLT3 K663Q mutant (V592 to Y969 residues) expressed in bacterial expression system at 1 uM by Kinomescan method relative to control.
The target of assay [19] is Ephrin type-A receptor 8 (Homo sapiens) (UniProt P29322). Kind of assay: Inhibition of wild-type human partial length EPHA8 (Q608 to C920 residues) expressed in bacterial expression system at 1 uM by Kinomescan method relative to control.
Ephrin type-A receptor 8 (Homo sapiens), sequence (P29322 whole entry, the tested form may be a part): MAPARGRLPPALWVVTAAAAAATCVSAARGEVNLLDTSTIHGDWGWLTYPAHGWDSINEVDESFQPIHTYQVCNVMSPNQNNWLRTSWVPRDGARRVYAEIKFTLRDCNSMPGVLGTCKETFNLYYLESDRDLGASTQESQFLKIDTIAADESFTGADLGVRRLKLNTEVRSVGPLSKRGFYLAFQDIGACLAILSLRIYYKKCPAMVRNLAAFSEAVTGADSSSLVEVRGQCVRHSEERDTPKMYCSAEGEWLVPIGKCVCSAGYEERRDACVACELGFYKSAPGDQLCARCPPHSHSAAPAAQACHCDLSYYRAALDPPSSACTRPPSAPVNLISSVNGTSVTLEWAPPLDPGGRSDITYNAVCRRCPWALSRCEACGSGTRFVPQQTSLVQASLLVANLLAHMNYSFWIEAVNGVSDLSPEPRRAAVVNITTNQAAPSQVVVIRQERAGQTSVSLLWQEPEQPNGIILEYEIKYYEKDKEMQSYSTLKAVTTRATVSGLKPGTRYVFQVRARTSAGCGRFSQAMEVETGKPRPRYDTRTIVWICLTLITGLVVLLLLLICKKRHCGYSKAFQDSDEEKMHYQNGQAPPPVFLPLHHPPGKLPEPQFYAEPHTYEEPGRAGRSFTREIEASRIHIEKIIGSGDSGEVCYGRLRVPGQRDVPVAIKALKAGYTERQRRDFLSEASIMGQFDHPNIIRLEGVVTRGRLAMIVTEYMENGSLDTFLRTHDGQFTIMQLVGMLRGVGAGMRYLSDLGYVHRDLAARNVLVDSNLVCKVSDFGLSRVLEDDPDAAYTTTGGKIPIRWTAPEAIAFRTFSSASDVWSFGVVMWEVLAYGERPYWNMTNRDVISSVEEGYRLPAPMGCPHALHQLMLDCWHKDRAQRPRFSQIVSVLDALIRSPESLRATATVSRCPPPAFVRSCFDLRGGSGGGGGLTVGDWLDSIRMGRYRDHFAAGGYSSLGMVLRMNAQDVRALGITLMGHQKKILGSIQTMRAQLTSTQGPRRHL
For assay [20], the target named is Mitogen-activated protein kinase kinase kinase kinase 5 (Homo sapiens) (UniProt Q9Y4K4). Description: Inhibition of wild-type human partial length MAP4K5 (M1 to P297 residues) expressed in bacterial expression system at 1 uM by Kinomescan method relative to control.
In assay [21] the target is Calcium/calmodulin-dependent protein kinase type 1D (Homo sapiens) (UniProt Q8IU85). Kind of assay: Inhibition of wild-type human partial length CAMK1D (M1 to K299 residues) expressed in bacterial expression system at 1 uM by Kinomescan method relative to control.
In assay [22] the target is Serine/threonine-protein kinase MRCK beta (Homo sapiens) (UniProt Q9Y5S2). Kind of assay: Inhibition of wild-type human partial length MRCKB (L56 to S417 residues) expressed in bacterial expression system at 1 uM by Kinomescan method relative to control.
For assay [23], the target named is Cyclin-dependent kinase 7 (Homo sapiens) (UniProt P50613). Kind of assay: Inhibition of wild-type human full length CDK7 (M1 to L344 residues) expressed in mammalian expression system at 1 uM by Kinomescan method relative to control.
The target of assay [24] is Serine/threonine-protein kinase 16 (Homo sapiens) (UniProt O75716). Kind of assay: Inhibition of wild-type human partial length STK16 (G11 to I305 residues) expressed in bacterial expression system at 1 uM by Kinomescan method relative to control.
For assay [25], the target named is Casein kinase II subunit alpha (Homo sapiens) (UniProt P68400). Description: Inhibition of wild-type human full length CSNK2A1 (M1 to Q391 residues) expressed in mammalian expression system at 1 uM by Kinomescan method relative to control.
Casein kinase II subunit alpha (Homo sapiens), sequence (P68400 whole entry, looked up, the tested form may be a part): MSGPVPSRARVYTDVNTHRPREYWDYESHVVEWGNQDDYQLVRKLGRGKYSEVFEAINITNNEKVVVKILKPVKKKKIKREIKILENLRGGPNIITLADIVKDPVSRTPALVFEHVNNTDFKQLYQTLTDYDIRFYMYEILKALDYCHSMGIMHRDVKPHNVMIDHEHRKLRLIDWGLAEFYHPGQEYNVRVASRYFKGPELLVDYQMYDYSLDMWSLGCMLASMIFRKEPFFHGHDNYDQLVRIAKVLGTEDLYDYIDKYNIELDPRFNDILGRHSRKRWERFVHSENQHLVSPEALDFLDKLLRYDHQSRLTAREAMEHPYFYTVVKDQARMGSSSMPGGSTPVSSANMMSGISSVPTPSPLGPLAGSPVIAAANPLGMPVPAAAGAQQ
For assay [26], the target named is Cyclin-dependent kinase 15 (Homo sapiens) (UniProt Q96Q40). Kind of assay: Inhibition of wild-type human full length PFTAIRE2 (M1 to W384 residues) expressed in bacterial expression system at 1 uM by Kinomescan method relative to control.
Assay [27] has as its target cAMP-dependent protein kinase catalytic subunit alpha (Homo sapiens) (UniProt P17612). Description: Inhibition of wild-type human partial length PKAC-alpha (G10 to F351 residues) expressed in bacterial expression system at 1 uM by Kinomescan method relative to control.

Serine/threonine-protein kinase D2 (Homo sapiens), sequence (Q9BZL6 whole entry, the tested form may be a part): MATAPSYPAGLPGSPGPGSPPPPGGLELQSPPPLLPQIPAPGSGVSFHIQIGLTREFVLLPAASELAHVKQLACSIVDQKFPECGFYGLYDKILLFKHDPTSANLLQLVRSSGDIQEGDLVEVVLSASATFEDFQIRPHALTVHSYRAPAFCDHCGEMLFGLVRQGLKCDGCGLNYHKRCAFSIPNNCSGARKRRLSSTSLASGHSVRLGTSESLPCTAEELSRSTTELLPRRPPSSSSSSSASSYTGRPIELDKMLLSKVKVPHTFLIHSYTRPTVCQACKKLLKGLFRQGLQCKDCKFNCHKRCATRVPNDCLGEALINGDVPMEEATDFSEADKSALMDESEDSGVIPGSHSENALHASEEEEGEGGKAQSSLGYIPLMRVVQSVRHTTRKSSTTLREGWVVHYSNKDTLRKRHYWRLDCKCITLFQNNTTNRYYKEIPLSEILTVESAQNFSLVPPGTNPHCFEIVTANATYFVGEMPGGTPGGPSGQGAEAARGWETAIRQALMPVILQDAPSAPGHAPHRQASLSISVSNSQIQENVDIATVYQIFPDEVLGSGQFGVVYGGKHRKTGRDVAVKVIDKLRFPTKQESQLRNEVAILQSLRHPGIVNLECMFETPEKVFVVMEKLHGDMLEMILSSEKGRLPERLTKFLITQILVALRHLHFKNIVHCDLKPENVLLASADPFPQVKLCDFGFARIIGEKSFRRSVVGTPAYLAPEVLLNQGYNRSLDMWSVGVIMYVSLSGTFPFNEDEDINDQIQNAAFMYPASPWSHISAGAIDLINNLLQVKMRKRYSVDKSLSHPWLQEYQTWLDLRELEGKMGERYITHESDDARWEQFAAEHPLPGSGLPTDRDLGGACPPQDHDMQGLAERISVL
Aurora kinase A (Homo sapiens), sequence (O14965 whole entry, the tested form may be a part): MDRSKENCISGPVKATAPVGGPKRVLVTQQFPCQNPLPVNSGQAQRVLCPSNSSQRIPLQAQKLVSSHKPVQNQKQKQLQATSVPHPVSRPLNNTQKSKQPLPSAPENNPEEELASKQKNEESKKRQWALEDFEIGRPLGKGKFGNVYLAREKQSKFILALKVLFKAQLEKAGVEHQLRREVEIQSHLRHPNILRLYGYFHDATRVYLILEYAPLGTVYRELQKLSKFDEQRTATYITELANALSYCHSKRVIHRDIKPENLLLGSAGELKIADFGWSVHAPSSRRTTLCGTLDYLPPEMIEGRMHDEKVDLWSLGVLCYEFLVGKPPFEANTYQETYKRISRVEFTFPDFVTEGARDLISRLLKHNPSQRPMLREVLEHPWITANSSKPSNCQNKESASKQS
Serine/threonine-protein kinase PLK2 (Homo sapiens), sequence (Q9NYY3 whole entry, looked up, the tested form may be a part): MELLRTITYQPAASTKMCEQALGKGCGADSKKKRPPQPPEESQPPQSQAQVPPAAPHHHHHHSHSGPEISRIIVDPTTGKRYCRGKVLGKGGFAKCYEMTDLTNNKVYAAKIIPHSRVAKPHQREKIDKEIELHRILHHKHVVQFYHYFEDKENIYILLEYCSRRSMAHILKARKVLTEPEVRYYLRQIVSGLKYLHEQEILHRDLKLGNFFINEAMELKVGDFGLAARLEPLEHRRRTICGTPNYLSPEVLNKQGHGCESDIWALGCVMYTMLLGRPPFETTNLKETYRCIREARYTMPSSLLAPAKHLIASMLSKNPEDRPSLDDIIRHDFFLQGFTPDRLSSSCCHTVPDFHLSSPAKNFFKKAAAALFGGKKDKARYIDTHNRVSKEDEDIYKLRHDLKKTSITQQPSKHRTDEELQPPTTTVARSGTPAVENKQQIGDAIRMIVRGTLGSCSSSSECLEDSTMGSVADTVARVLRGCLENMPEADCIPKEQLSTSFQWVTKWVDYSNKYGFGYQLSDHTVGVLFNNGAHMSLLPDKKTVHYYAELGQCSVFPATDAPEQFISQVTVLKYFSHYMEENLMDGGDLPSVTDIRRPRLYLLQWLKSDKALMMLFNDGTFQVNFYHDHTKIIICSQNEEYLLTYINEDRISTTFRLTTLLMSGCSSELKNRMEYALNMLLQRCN
Tyrosine-protein kinase ITK/TSK (Homo sapiens), sequence (Q08881 whole entry, the tested form may be a part): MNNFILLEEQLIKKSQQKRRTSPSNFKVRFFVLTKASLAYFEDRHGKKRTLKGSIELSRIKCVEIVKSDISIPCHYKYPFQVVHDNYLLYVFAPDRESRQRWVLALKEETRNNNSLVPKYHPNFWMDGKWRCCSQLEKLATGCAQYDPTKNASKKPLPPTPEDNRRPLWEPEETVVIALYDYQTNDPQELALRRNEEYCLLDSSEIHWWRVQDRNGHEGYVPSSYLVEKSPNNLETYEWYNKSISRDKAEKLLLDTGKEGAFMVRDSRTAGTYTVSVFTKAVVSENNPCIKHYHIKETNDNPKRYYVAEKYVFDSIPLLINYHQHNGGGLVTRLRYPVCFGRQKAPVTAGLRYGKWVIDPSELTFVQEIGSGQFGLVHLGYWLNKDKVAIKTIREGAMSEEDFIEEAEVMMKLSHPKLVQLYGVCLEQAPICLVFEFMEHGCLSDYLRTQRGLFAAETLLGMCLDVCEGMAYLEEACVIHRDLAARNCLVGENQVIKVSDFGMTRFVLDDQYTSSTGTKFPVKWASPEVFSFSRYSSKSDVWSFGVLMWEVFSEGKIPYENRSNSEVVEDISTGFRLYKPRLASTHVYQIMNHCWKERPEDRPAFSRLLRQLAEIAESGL
Serine/threonine-protein kinase STK11 (Homo sapiens), sequence (Q15831 whole entry, the tested form may be a part): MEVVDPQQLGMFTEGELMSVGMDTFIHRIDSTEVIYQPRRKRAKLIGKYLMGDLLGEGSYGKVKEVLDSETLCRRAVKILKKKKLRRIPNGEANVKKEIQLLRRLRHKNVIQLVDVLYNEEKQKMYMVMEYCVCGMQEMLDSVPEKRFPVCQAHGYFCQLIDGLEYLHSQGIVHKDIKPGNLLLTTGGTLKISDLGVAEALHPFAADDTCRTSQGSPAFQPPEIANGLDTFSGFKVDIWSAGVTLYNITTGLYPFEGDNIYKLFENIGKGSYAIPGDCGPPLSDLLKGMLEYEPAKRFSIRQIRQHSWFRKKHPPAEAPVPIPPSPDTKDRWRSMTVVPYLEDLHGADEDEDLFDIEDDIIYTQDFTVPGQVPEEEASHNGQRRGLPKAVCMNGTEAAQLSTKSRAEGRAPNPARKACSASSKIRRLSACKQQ

Regarding `O=C(Nc1cccc([C@H]2CCCN(c3ncnc4[nH]ccc34)C2)c1)Nc1ccccc1N1CCCC1`, the inhibition (commonly the relative decrease from the control value, in per cent) in [1] was found to be 78%; in [2] it was 100%; in assay [3], 58%; in assay [4], 0.8%; in assay [5], 86%; in [6] it was 64%. For the same compound, the inhibition was determined as 0.1% in assay [7]; 25% in [8]; 50% in assay [9]; 7% in assay [10]; 85% in assay [11]; 100% in [12]. The inhibition in assay [13] worked out at 25%; in assay [14], 100%.
As to `O=C(Nc1cccc([C@@H]2CN(c3ncnc4[nH]ccc34)CCN2CCO)c1)Nc1c(F)cccc1N1CCCC1`, the inhibition in assay [15] was 100%; in assay [16] it was 100%; in [17] it was 87%; in [18] it was 42%; in [19] it was 100%; in assay [20], 91%. The inhibition in assay [21] worked out at 100%; in assay [22], 100%; in assay [23], 100%; in assay [24] it was 82%; in [25], 93%; in assay [26], 91%. In assay [27], this compound had an inhibition of 76%.
